Results on five molecules are retold here after patent US20110065754A1 (priority 2009, published 2011).

One data set has as its system Ebola Zaire Virus. Format: cell-based, Ebola virus (strain Zaire).
A further data set has as its system Marburg Ci67. Format: cell-based, Marburg virus.
Data set [1] relates to Ebola virus (strain Zaire). More on the design: species or system Balb/c mice. The settings on record: mouse, in vivo.
For the next data set, the system named is Ebola Zaire. More on the design: species or system C57Bl/6 mice. Conditions: mouse, in vivo.
Another data set deals with Marburg Ravn. Also on record: species or system Balb/c mice. The settings on record: mouse, in vivo.
The conditions of data set [2]: mouse, in vivo.
The conditions of data set [3]: mouse.

For the molecule `[N-]=[N+]=Nc1ccc(NCCCCCCN2C[C@H](O)[C@@H](O)[C@H](O)[C@H]2CO)c([N+](=O)[O-])c1` [NAP-DNJ, N—(N-{4′-azido-2′-nitrophenyl}-6-aminohexyl)deoxynojirimycin], in the data set with Ebola Zaire Virus, half-maximal inhibition (IC50) was put at 6 µM. Moreover, in the data set on Marburg Ci67, the IC50 (commonly the concentration that inhibits the measured activity by half) stood at 6 µM. In data set [1], this molecule gave a survival rate of 71%. Besides, the “protection against Ebola virus (survival)” value in the data set with Ebola Zaire is “significant protection”. In the data set with Marburg Ravn, the “protection against Marburg virus (survival)” value is “protection”. Besides, in data set [2], the “reversibility of symptoms after end of treatment” value is on record as “symptoms promptly ceased when treatment was done”, the weight loss result is recorded as “did not show signs of weight loss” and the “weight loss compared to vehicle only control” value is on record as “did not show any significant signs of weight loss”. For the same molecule, in data set [3], the “weight loss or adverse effects in vivo” value was “no weight loss or adverse effects observed”.
As to `CCCOCCCCCCN1C[C@H](O)[C@@H](O)[C@H](O)[C@H]1CO` [Compound N7-O-DNJ, N-(7-Oxadecyl)deoxynojirimycin], the IC50 is 20 µM with Ebola Zaire Virus and 50 µM in the data set on Marburg Ci67.
In the data set on Ebola Zaire Virus, `CCCCN1C[C@H](O)[C@@H](O)[C@H](O)[C@H]1CO` [NB-DNJ, N-Butyl deoxynojirimycin] came in with an IC50 of 32 µM. Besides, the “weight loss compared to vehicle only control” value in data set [2] is given as “did not show any significant signs of weight loss”.
`CCCCCCCCCN1C[C@H](O)[C@@H](O)[C@H](O)[C@H]1CO` [NN-DNJ, N-Nonyl deoxynojirimycin] gave an IC50 in the data set with Ebola Zaire Virus of 12 µM.
As for `COCCCCCCCCCN1C[C@H](O)[C@@H](O)[C@H](O)[C@H]1CO` [Compound N9-DNJ, N-(9-Methoxynonyl) deoxynojirimycin], the figures for the half-inhibitory concentration (IC50) in the data set on Ebola Zaire Virus and in the data set on Marburg Ci67 were 16 µM and 32 µM, respectively. In addition, the “weight loss compared to vehicle only control” value in data set [2] is “did not show any significant signs of weight loss”.
